Source: ChEMBL document CHEMBL4219182, “One-pot, multicomponent synthesis of 2,3-disubstituted quinazolin-ones with potent and selective activity against Toxoplasma gondii” (Bioorg Med Chem Lett, 2018)
Activity calls are given as the source filed them. The rule behind the calls is not given here.

Assays:
[1] = Cytotoxicity against HFF by CellTiter96 AQueous one solution cell proliferation assay; assay type: cell-based; conditions: human, HFF cells; read-out: TD50 (the source's name)
[2] = tested on: Toxoplasma gondii; assay: Antiparasitic activity against tachyzoite stage of Toxoplasma gondii infected in HFF assessed as inhibition of parasite replication by measuring parasitophorous vacuoles containing 1, 2, 4 and 8 tachyzoites at 10 uM after 24 hrs by microscopic analysis; assay type: functional, organism-based
[3] = tested on: Toxoplasma gondii; assay: Antiparasitic activity against tachyzoite stage of Toxoplasma gondii infected in HFF assessed as reduction in parasite attachment to host cell at 10 uM pretreated with parasite for 20 mins followed by infection in HFF measured by immunofluorescence staining based assay; assay type: functional, organism-based
[4] = tested on: Toxoplasma gondii; assay: Antiparasitic activity against tachyzoite stage of Toxoplasma gondii expressing beta-gal infected in HFF after 4 days by […] based assay; assay type: functional, organism-based; conditions: 96 h
[5] = tested on: Toxoplasma gondii; assay: Antiparasitic activity against tachyzoite stage of Toxoplasma gondii infected in HFF assessed as reduction in parasite invasion at 10 uM pretreated with parasite for 20 mins followed by infection in HFF measured by immunofluorescence staining based assay; assay type: functional, organism-based
[6] = Therapeutic index, ratio of TD50 for HFF to IC50 for tachyzoite stage of Toxoplasma gondii expressing beta-gal infected in HFF; assay type: toxicity; conditions: human; read-out: TI
[7] = tested on: Toxoplasma gondii; assay: Antiparasitic activity against tachyzoite stage of Toxoplasma gondii infected in HFF assessed as inhibition of parasite replication by measuring increase in parasitophorous vacuoles containing 1 tachyzoites at 10 uM after 24 hrs by microscopic analysis; assay type: functional, organism-based
[8] = tested on: Toxoplasma gondii; assay: Antiparasitic activity against tachyzoite stage of Toxoplasma gondii infected in HFF assessed as inhibition of parasite replication by measuring parasitophorous vacuoles containing 1 or 2 tachyzoites at 10 uM after 24 hrs by microscopic analysis; assay type: functional

| SMILES | CC50 [1] [µM] | inhibition [2] | Activity [3] | IC50 [4] [µM] | IC90 [4] [µM] | Activity [5] | selectivity ratio [6] | inhibition [7] | inhibition at 10 µM [8] [%] |
| --- | --- | --- | --- | --- | --- | --- | --- | --- | --- |
| CCCCCCn1c(-c2ccc(OCc3ccccc3)cc2)nc2ccccc2c1=O | 178 | inactive | Active | 10 | 45 | Active | 18 |  |  |
| COc1ccc(-n2c(-c3ccc(Br)cc3)nc3ccccc3c2=O)cc1 | ≥ 320 |  |  | 32 | 81 |  | 10 |  |  |
| CCCCCCCCCCn1c(-c2ccc(N(C)C)cc2)nc2ccccc2c1=O | ≥ 320 |  |  | 49 | 170 |  | 7 |  |  |
| O=c1[nH]c(-c2ccc(Br)cc2)nc2ccccc12 | ≥ 320 |  | Active | 92 | 414 | Active | 3 | Active |  |
| CN(C)c1ccc(-c2nc3ccccc3c(=O)n2Cc2ccccc2)cc1 | 133 |  |  | 12 | 60 |  | 11 |  |  |
| O=c1c2ccccc2nc(-c2ccc(OCc3ccccc3)cc2)n1C1CCCCC1 | ≥ 320 |  | inactive | 6 | 46 | inactive | 53 |  | > 70 |
| O=c1c2ccccc2nc(-c2ccc(OCc3ccccc3)cc2)n1CCc1cc2ccccc2[nH]1 | ≥ 320 |  |  | 154 | 724 |  | 2 |  |  |
| CCCCCCn1c(-c2ccc(N(C)C)cc2)nc2ccccc2c1=O | 50 |  |  | 18 | 52 |  | 3 |  |  |
| CCCCCCn1c(-c2ccc(Br)cc2)nc2ccccc2c1=O | 88 |  | Active | 60 | 193 | Active | 1 | Active |  |
| CC(C)=CCCC(C)=CCn1c(-c2ccc(OCc3ccccc3)cc2)nc2ccccc2c1=O | ≥ 320 |  | inactive | 7 | 58 | inactive | 46 |  | > 70 |
| CC(C)CCn1c(-c2ccc(N(C)C)cc2)nc2ccccc2c1=O | 85 |  |  | 35 | 116 |  | 2 |  |  |
| COc1ccc(-n2c(-c3ccc4c(c3)OCO4)nc3ccccc3c2=O)cc1 | ≥ 320 |  |  | 40 | 91 |  | 8 |  |  |
| O=c1c2ccccc2nc(-c2ccc(OCc3ccccc3)cc2)n1-c1ccc(Br)cc1 | 5 |  |  | 3 | 12 | Active | 2 | Active | > 75 |
| C[C@@H]1CC[C@H]2[C@@H](C)C(=O)O[C@@H]3O[C@@]4(C)CC[C@@H]1[C@]32OO4 [ARTEMISININ] | ≥ 320 |  |  | 2 | 19 |  | 160 |  |  |
| O=c1c2ccccc2nc(-c2ccc(OCc3ccccc3)cc2)n1CCc1ccc(O)cc1 | 229 |  |  | 17 | 52 |  | 13 |  |  |
| CC(C)CCn1c(-c2ccc(OCc3ccccc3)cc2)nc2ccccc2c1=O | 118 |  |  | 12 | 55 |  | 10 |  |  |
| O=c1[nH]c(-c2ccc(OC(F)(F)F)cc2)nc2ccccc12 | ≥ 320 |  |  | 27 | 447 |  | 12 |  |  |

| SMILES | CC50 [1] [µM] | inhibition [2] | Activity [3] | IC50 [4] [µM] | IC90 [4] [µM] | Activity [5] | selectivity ratio [6] | inhibition [7] | inhibition at 10 µM [8] [%] |
| --- | --- | --- | --- | --- | --- | --- | --- | --- | --- |
| Oc1nc(-c2cccnc2)nc2ccccc12 | ≥ 320 |  |  | 94 | 225 |  | 3 |  |  |
| CN(C)c1ccc(-c2nc3ccccc3c(=O)n2CCc2ccc(O)cc2)cc1 | 196 |  |  | 112 | 353 |  | 2 |  |  |
| O=c1[nH]c(-c2ccc(OCc3ccccc3)cc2)nc2ccccc12 | ≥ 320 |  |  | 153 | 4990 |  | 2 |  |  |
| COc1ccc(-c2nc3ccccc3c(=O)n2-c2ccc(Br)cc2)cc1 | 196 |  |  | 31 | 83 |  | 6 |  |  |
| CCCCCCCCCCn1c(-c2ccc(OCc3ccccc3)cc2)nc2ccccc2c1=O | ≥ 320 |  |  | 25 | 119 |  | 13 |  |  |
| O=c1[nH]c(-c2ccc3c(c2)OCO3)nc2ccccc12 | ≥ 320 |  |  | 50 | 443 |  | 6 |  |  |
| O=c1c2ccccc2nc(-c2ccc(OCc3ccccc3)cc2)n1Cc1ccccc1 | ≥ 320 |  | inactive | 13 | 71 | inactive | 25 |  | > 70 |
| O=C1C(O)=C([C@H]2CC[C@H](c3ccc(Cl)cc3)CC2)C(=O)c2ccccc21 [ATOVAQUONE] | 21 |  |  | 0.2 | 0.6 |  | 111 |  |  |
| COc1ccc(-n2c(-c3ccc(OCc4ccccc4)cc3)nc3ccccc3c2=O)cc1 | 4 |  | Active | 4 | 14 | Active | 1 |  |  |
| COc1ccccc1-c1nc(O)c2ccccc2n1 | 305 |  |  | 56 | 266 |  | 5 |  |  |
| Oc1nc(-c2ccc(F)cc2)nc2ccccc12 | ≥ 320 |  |  | 29 | 260 |  | 11 |  |  |
| O=c1c2ccccc2nc(-c2ccc(Br)cc2)n1-c1ccc(Br)cc1 | ≥ 320 |  |  | 44 | 126 |  | 7 |  |  |
| COc1ccc(-c2nc3ccccc3c(=O)[nH]2)cc1 | 125 |  |  | 20 | 121 |  | 6 |  |  |
| CCCCCCn1c(-c2ccc(OC)cc2)nc2ccccc2c1=O | 42 |  |  | 10 | 48 |  | 4 |  |  |
| CN(C)c1ccc(-c2nc3ccccc3c(=O)n2C2CCCCC2)cc1 | 112 |  |  | 15 | 67 |  | 7 |  |  |
| CN(C)c1ccc(-c2nc(O)c3ccccc3n2)cc1 | ≥ 320 | inactive | Active | 14 | 281 | Active | 23 |  |  |
